Experimental data from paper PMC12156041, “Design, Synthesis and Antiplasmodial Activities of a Library of Fluorine-Based 3-Benzylmenadiones” (Molecules, 2025).
Like-named read-outs stand apart in the source and are kept apart here.

Columns and labels:
[1] = system: P. falciparum NF54 strain; test: P. falciparum NF54 [3H]hypoxanthine incorporation assay, 72 h, 0.5% Albumax; format: cell-based; conditions: Plasmodium falciparum
[2] = system: rat myoblast cell line (L6 cells); format: cell-based
From the text: Considering the potency of plasmodione and the observed main metabolite 6-hydroxy–plasmodione eliminated in the urine of PD-treated mice, our primary goal was to introduce a fluorine atom at C-6 of the menadione core to block the process of drug metabolism from occurring in the host’s liver. In this aim, we prioritized the preparation of a library of 6-fluoro-3-benzylmenadiones by investigating the replacement of the trifluoromethyl group by diverse EWG and EDG groups in various loci of the aryl ring. For SAR, all compounds were tested for the inhibition of parasite growth in RBCs infected with a P. falciparum chloroquine-sensitive strain, NF54. The parasites were cultured in vitro according to known conditions. […] The cytotoxicity of the active compounds was assessed against a rat myoblast cell line (L6 cells).
Cell proliferation was assessed with resazurin, and the generally cytotoxic agent podophyllotoxin served as the positive control, as previously reported by the STPH authors M. R. and P. M. in their recently published article.

[3] = NF54, 72 h, P. falciparum NF54, 72 h, read-out: IC50
[4] = NF54, as stated in text, read-out: IC50 against P. falciparum NF54

IC50 [1, 3] [nM]	IC50 [1, 4] [nM]	SMILES	Tox/L6 [2] [µM]
330		CC1=C(Cc2ccc(OC(F)(F)F)cc2)C(=O)c2cc(F)ccc2C1=O [A-a-3]	138.8
302		CC1=C(Cc2ccc(F)cc2)C(=O)c2cc(F)ccc2C1=O [A-a-4]	174.5
246		CC1=C(Cc2cccc(F)c2)C(=O)c2cc(F)ccc2C1=O [A-a-5]	6.6
231		CC1=C(Cc2ccc(C#N)cc2)C(=O)c2cc(F)ccc2C1=O [A-a-10]	95
264		CC1=C(Cc2ccccc2C#N)C(=O)c2cc(F)ccc2C1=O [A-a-11]	327.0
177		CC1=C(Cc2ccc([N+](=O)[O-])cc2)C(=O)c2cc(F)ccc2C1=O [A-a-12]	307.0
198		CC1=C(Cc2ccc(I)cc2)C(=O)c2cc(F)ccc2C1=O [A-a-13]	40.9
1120		COc1ccc(CC2=C(C)C(=O)c3ccc(F)cc3C2=O)cc1 [A-a-16]	195.9
361		COc1cccc(CC2=C(C)C(=O)c3ccc(F)cc3C2=O)c1 [A-a-17]	165.6
376		CC1=C(Cc2ccc(F)c(I)c2)C(=O)c2cc(F)ccc2C1=O [B-a-33]	
2530		CC1=C(Cc2ccc3ncsc3c2)C(=O)c2cc(F)ccc2C1=O [C-a-41]	

Continued, molecule first:

SMILES	IC50 [1, 3] [nM]	IC50 [1, 4] [nM]	Tox/L6 [2] [µM]
CC1=C(Cc2cccc(C(F)(F)F)c2)C(=O)c2cc(F)ccc2C1=O [A-a-1]	82		12.5
CC1=C(Cc2ccccc2C(F)(F)F)C(=O)c2cc(F)ccc2C1=O [A-a-2]	138		53.4
CC1=C(Cc2ccccc2F)C(=O)c2cc(F)ccc2C1=O [A-a-6]	119		7.6
CC1=C(Cc2ccc(C(F)(F)F)c(F)c2)C(=O)c2cc(F)ccc2C1=O [A-a-7]	735		85.5
CC1=C(Cc2ccc(C(F)(F)F)c(Br)c2)C(=O)c2cc(F)ccc2C1=O [A-a-8]	167		
CC1=C(Cc2ccc(F)c(C(F)(F)F)c2)C(=O)c2cc(F)ccc2C1=O [A-a-9]	149		
CC1=C(Cc2ccc(Cl)cc2Cl)C(=O)c2cc(F)ccc2C1=O [A-a-14]	137		
CC1=C(Cc2ccc(Cl)cc2C(F)(F)F)C(=O)c2cc(F)ccc2C1=O [A-a-15]	103		
COc1ccccc1CC1=C(C)C(=O)c2ccc(F)cc2C1=O [A-a-18]	572		189.3
CC1=C(Cc2ccc3c(c2)OCCO3)C(=O)c2cc(F)ccc2C1=O [A-a-22]	311		
CC1=C(Cc2ccc3c(c2)OC(C)(C)O3)C(=O)c2cc(F)ccc2C1=O [A-a-23]	338		
CC1=C(Cc2ccc3c(c2)OC(F)(F)O3)C(=O)c2cc(F)ccc2C1=O [A-a-24]	206		
CC1=C(Cc2ccccc2F)C(=O)c2ccccc2C1=O [A-b-6]	453		
CC1=C(Cc2ccc(C(F)(F)F)c(Br)c2)C(=O)c2ccccc2C1=O [A-b-8]	81	< 100	
CC1=C(Cc2ccc(Cl)cc2Cl)C(=O)c2ccccc2C1=O [A-b-14]	67	< 100	
CC1=C(Cc2ccc(Cl)cc2C(F)(F)F)C(=O)c2ccccc2C1=O [A-b-15]	80	< 100	
CC1=C(Cc2ccc3c(c2)OCCO3)C(=O)c2ccccc2C1=O [A-b-22]	280		
CC1=C(Cc2ccc3c(c2)OC(C)(C)O3)C(=O)c2ccccc2C1=O [A-b-23]	152		
CC1=C(Cc2ccc3c(c2)OC(F)(F)O3)C(=O)c2ccccc2C1=O [A-b-24]	77	< 100	
CC1=C(Cc2ccc(Br)cc2C(F)(F)F)C(=O)c2cc(F)ccc2C1=O [B-a-34]	169		
CC1=C(Cc2ccc(F)c(I)c2)C(=O)c2ccccc2C1=O [B-b-33]	136		
CC1=C(Cc2ccc(Br)cc2C(F)(F)F)C(=O)c2ccccc2C1=O [B-b-34]	78		
CC1=C(Cc2ccc3scnc3c2)C(=O)c2cc(F)ccc2C1=O [C-a-40]	2060		
